Patent publication US9833497B2, “Human originated EGF domain proteins and use of the same” (CHENGDU SOURCEBIO LIMITED-LIABILITY COMPANY, priority 2013, dated 2017)

Columns and labels:
Assay type in all cases: cell-based
Enterobacter cloacae = experiment: MIC against Gram-negative bacteria: Enterobacter cloacae; details: for MIC (μg/mL) E. cloacae / MIC against E. cloacae: Enterobacter cloacae, 5×10^5 CFU/mL; for MIC: E. cloacae
How it was run: (§1)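 MIC, the lowest recombinant protein concentration giving no bacterial growth, found by two-fold serial dilution of human EGF-domain proteins in triplicate. Inoculum 5×10^5 CFU/mL in LB from cultures at McFarland 0.5; plates incubated at 37° C, 175 rpm shaking.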

Proteus vulgaris = experiment: MIC against Gram-negative bacteria: Proteus vulgaris; details: for MIC (μg/mL) P. vulgaris / MIC against P. vulgaris: Proteus vulgaris, 5×10^5 CFU/mL; for MIC: P. vulgaris
How it was run: as §1

Moraxella catarrhalis = experiment: MIC against Gram-negative bacteria: Moraxella catarrhalis; details: for MIC (μg/mL) M. catarrhalis / MIC against M. catarrhalis: Moraxella catarrhalis, 5×10^5 CFU/mL; for MIC: M. catarrhalis
How it was run: as §1

Klebsiella pneumonia = experiment: MIC against Gram-negative bacteria: Klebsiella pneumonia; details: for MIC (μg/mL) K. pneumonia / MIC against K. pneumonia: Klebsiella pneumonia, 5×10^5 CFU/mL; for MIC: K. pneumonia
How it was run: as §1

Aeromonas hydrophila = experiment: MIC against Gram-negative bacteria: Aeromonas hydrophila; details: for MIC (μg/mL) A. hydrophila / MIC against A. hydrophila: Aeromonas hydrophila, 5×10^5 CFU/mL; for MIC: A. hydrophila
How it was run: as §1

Pseudomonas aeruginosa = experiment: MIC against Gram-negative bacteria: Pseudomonas aeruginosa; details: for MIC (μg/mL) P. aeruginosa / MIC against P. aeruginosa: Pseudomonas aeruginosa, 5×10^5 CFU/mL; for MIC: P. aeruginosa
How it was run: as §1

E. coli BL21 = experiment: MIC against Gram-negative bacteria: E. coli BL21; details: E. coli BL21; for MIC (μg/mL) E. coli BL21 / MIC against E. coli BL21: 5×10^5 CFU/mL
How it was run: as §1

Serratia marcescens = experiment: MIC against Gram-negative bacteria: Serratia marcescens; details: for MIC (μg/mL) S. marcescens / MIC against S. marcescens: Serratia marcescens, 5×10^5 CFU/mL; for MIC: S. marcescens
How it was run: as §1

Citrobacter diversus = experiment: MIC against Gram-negative bacteria: Citrobacter diversus; details: for MIC (μg/mL) C. diversus / MIC against C. diversus: Citrobacter diversus, 5×10^5 CFU/mL; for MIC: C. diversus
How it was run: as §1

Proteus mirabilis = experiment: MIC against Gram-negative bacteria: Proteus mirabilis; details: for MIC (μg/mL) P. mirabilis / MIC against P. mirabilis: Proteus mirabilis, 5×10^5 CFU/mL; for MIC: P. mirabilis
How it was run: as §1

E. coli DH5α = experiment: Antibacterial activity: MIC and growth curve against E. coli DH5α in 96-well plate; details: minimal inhibitory concentration against E. coli DH5α; 96-well plate, 5×10^5 CFU/mL, 37° C., judged after 8 h
How it was run: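 Log-phase bacteria (OD600 ~0.5) resuspended in LB at 5×10^5 CFU/mL, exposed to recombinant protein at 50, 25, 12.5 μg/mL final in triplicate, 37 °C shaking at 175 rpm. OD600 read every 30 min; MIC is lowest concentration showing no growth.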

Row | Substance | MIC (μg/mL) E. cloacae (Enterobacter cloacae; 96-well plate, 37° C., 10 h) | MIC (μg/mL) P. vulgaris (Proteus vulgaris; 96-well plate, 37° C., 10 h) | MIC (μg/mL) M. catarrhalis (Moraxella catarrhalis; 96-well plate, 37° C., 10 h) | MIC (μg/mL) K. pneumonia (Klebsiella pneumonia; 96-well plate, 37° C., 10 h) | MIC (μg/mL) A. hydrophila (Aeromonas hydrophila; 96-well plate, 37° C., 10 h) | MIC (μg/mL) P. aeruginosa (Pseudomonas aeruginosa; 96-well plate, 37° C., 10 h) | MIC (μg/mL) E. coli BL21 (E. coli BL21; 96-well plate, 37° C., 10 h) | MIC (μg/mL) S. marcescens (Serratia marcescens; 96-well plate, 37° C., 10 h) | MIC (μg/mL) C. diversus (Citrobacter diversus; 96-well plate, 37° C., 10 h) | MIC (μg/mL) P. mirabilis (Proteus mirabilis; 96-well plate, 37° C., 10 h) | MIC (E. coli DH5α) | MIC (Enterobacter cloacae; 10 h cultivation at 37° C.) | MIC (Proteus vulgaris; 10 h cultivation at 37° C.) | MIC (Moraxella catarrhalis; 10 h cultivation at 37° C.) | MIC (Klebsiella pneumonia; 10 h cultivation at 37° C.) | MIC (Aeromonas hydrophila; 10 h cultivation at 37° C.) | MIC (Pseudomonas aeruginosa; 10 h cultivation at 37° C.) | MIC (E. coli BL21; 10 h cultivation at 37° C.) | MIC (Serratia marcescens; 10 h cultivation at 37° C.) | MIC (Citrobacter diversus; 10 h cultivation at 37° C.) | further results
1 | PRT127 (CSGHCTSYGTNCENGGKCLERYHGYSCDCSNTAYDGTFCN; listed as Homo sapiens) | 12.5 µg/mL | 12.5 µg/mL | 12.5 µg/mL | 25 µg/mL | 25 µg/mL | 12.5 µg/mL | 12.5 µg/mL | 12.5 µg/mL | 12.5 µg/mL | 12.5 µg/mL | 12.5 µg/mL |  |  |  |  |  |  |  |  |  | 
2 | PRT907 (PSVSCEVAAQRQGVDVARLCQHGGLCVDAGNTHHCRCQAGYTGSYCE; listed as Homo sapiens) |  |  |  |  |  |  |  |  |  |  | 25 µg/mL | 12.5 µg/mL | 25 µg/mL | 12.5 µg/mL | 25 µg/mL | 12.5 µg/mL | 12.5 µg/mL | 12.5 µg/mL | 12.5 µg/mL | 12.5 µg/mL | MIC (Proteus mirabilis; 10 h cultivation at 37° C.): 25 µg/mL
3 | PRT91 (DTNECIQFPFVCPRDKPVCVNTYGSYRCRTNKKCSRGYEPNEDGTAC; listed as Homo sapiens) | 12.5 µg/mL | 50 µg/mL | 25 µg/mL | 12.5 µg/mL | 25 µg/mL | 12.5 µg/mL | 12.5 µg/mL | 12.5 µg/mL | 12.5 µg/mL | 12.5 µg/mL | 12.5 µg/mL |  |  |  |  |  |  |  |  |  | 
4 | PRT1252 (CPLTCDDISGQVTCPPDWPCGSPGCWCPEGQVLGSEGWCV; listed as Homo sapiens) |  |  |  |  |  |  |  |  |  |  | 12.5 µg/mL |  |  |  |  |  |  |  |  |  | MIC against E. cloacae (Enterobacter cloacae; 96-well plate, 37° C., 10 h): 25 µg/mL; MIC against P. vulgaris (Proteus vulgaris; 96-well plate, 37° C., 10 h): 25 µg/mL; MIC against M. catarrhalis (Moraxella catarrhalis; 96-well plate, 37° C., 10 h): 25 µg/mL; MIC against K. pneumonia (Klebsiella pneumonia; 96-well plate, 37° C., 10 h): 12.5 µg/mL; MIC against A. hydrophila (Aeromonas hydrophila; 96-well plate, 37° C., 10 h): 50 µg/mL; MIC against P. aeruginosa (Pseudomonas aeruginosa; 96-well plate, 37° C., 10 h): 25 µg/mL; MIC against E. coli BL21 (E. coli BL21; 96-well plate, 37° C., 10 h): 50 µg/mL; MIC against S. marcescens (Serratia marcescens; 96-well plate, 37° C., 10 h): 12.5 µg/mL; MIC against C. diversus (Citrobacter diversus; 96-well plate, 37° C., 10 h): 12.5 µg/mL; MIC against P. mirabilis (Proteus mirabilis; 96-well plate, 37° C., 10 h): 50 µg/mL
5 | PRT1357 (GQHSCPSDCNNLGQCVSGRCICNEGYSGEDCS; listed as Homo sapiens) |  |  |  |  |  |  |  |  |  |  | 50 µg/mL |  |  |  |  |  |  |  |  |  | MIC against E. cloacae (Enterobacter cloacae; 10 h cultivation at 37° C.): 25 µg/mL; MIC against P. vulgaris (Proteus vulgaris; 10 h cultivation at 37° C.): 50 µg/mL; MIC against M. catarrhalis (Moraxella catarrhalis; 10 h cultivation at 37° C.): 12.5 µg/mL; MIC against K. pneumonia (Klebsiella pneumonia; 10 h cultivation at 37° C.): 50 µg/mL; MIC against A. hydrophila (Aeromonas hydrophila; 10 h cultivation at 37° C.): 100 µg/mL; MIC against P. aeruginosa (Pseudomonas aeruginosa; 10 h cultivation at 37° C.): 25 µg/mL; MIC against E. coli BL21 (E. coli BL21; 10 h cultivation at 37° C.): 12.5 µg/mL; MIC against S. marcescens (Serratia marcescens; 10 h cultivation at 37° C.): 12.5 µg/mL; MIC against C. diversus (Citrobacter diversus; 10 h cultivation at 37° C.): 50 µg/mL; MIC against P. mirabilis (Proteus mirabilis; 10 h cultivation at 37° C.): 12.5 µg/mL
6 | PRT947 (NIDDCARGPHCLNGGQCMDRIGGYSCRCLPGFAGERCE; listed as Homo sapiens) |  |  |  |  |  |  |  |  |  |  | 12.5 µg/mL | 12.5 µg/mL | 50 µg/mL | 12.5 µg/mL | 50 µg/mL | 50 µg/mL | 12.5 µg/mL | 50 µg/mL | 12.5 µg/mL | 25 µg/mL | MIC (Proteus mirabilis; 10 h cultivation at 37° C.): 25 µg/mL
